Experimental data as given in patent publication US20250188088A1, “COMPOUND AND USE THEREOF” (ONQUALITY PHARMACEUTICALS CHINA LTD., priority 2022, published 2025).

Tested on: skin contact delayed-type hypersensitivity
Assay: Skin contact delayed-type hypersensitivity (DNFB) response test, ear swelling, topical ointment
Type: in vivo
Conditions: topical to ears, DNFB DTH, Balb/c mice, compared to blank ointment
Procedure, shortened: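 Balb/c mice sensitized with DNFB on the back on Days 0–1, then challenged on Day 5 with 0.2% DNFB on both ears. Ear thickness measured by micrometer 24–72 h after challenge. Compound ointment applied topically over Days −1–7 or Days 4–7; effect is the reduction in ear swelling versus blank ointment, with ≥20% deemed effective.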

C[C@@H]1CCN(C(=O)CC#N)C[C@@H]1N(C)c1ncnc2c1ccn2C(=O)N(C)CCOC(=O)C1CCCO1 (some centres unmarked) [Compound A7]
Reduction Rate of Ear Swelling (ointment 0.05 wt%): 18% | Reduction Rate of Ear Swelling (ointment 0.1 wt%): 22% | Reduction Rate of Ear Swelling (ointment 1.0 wt%): 27% | Reduction Rate of Ear Swelling (ointment 5.0 wt%): 35% | Reduction Rate of Ear Swelling (ointment 10.0 wt%): 42%
